Calls of active or inactive are those of the source. The calls are words filed in the database; no cut-off is given here.
Legend:
MDA-MB-231 [1] = assay: Induction of DNA damage in human MDA-MB-231 cells assessed as increase in tail moment at 4 uM incubated for 24 hrs by electrophoresis assay; assay type: functional, cell-based
MDA-MB-231 [2] = assay: Induction of cell cycle arrest in human MDA-MB-231 cells assessed as accumulation of cells at G2/M phase at 1 uM incubated for 24 hrs by RNase/PI staining based flow cytometry (reference value: 11.3 %); assay type: functional
Quadruplex DNA [3] = assay: Stabilization of G-quadruplex telomeric24 DNA (unknown origin) at 10 uM incubated for 40 mins by replication based ethidium bromide staining based gel electrophoresis; assay type: nucleic-acid assay
Quadruplex DNA [4] = assay: Stabilization of G-quadruplex telomeric DNA in human MDA-MB-231 cells assessed as increase in S9.6-positive cell nuclei at 3 uM incubated for 24 hrs by DAPI staining based immunofluorescence microscopic analysis
4T1 = assay: Antitumor immunity against mouse 4T1 cells implanted in BALB/c mouse assessed as increase in proportion of CD4+ T cells in spleen at 10 mg/kg,ip every other day for 14 days by flow cytometry; assay type: functional, organism-based; settings: time 14.0 day

With `CN(C)CCN(C)c1ccc(-c2nc3ccc(C(F)(F)F)cc3nc2-c2ccc(N(C)CCN(C)C)cc2)cc1` as the compound, how does the Activity (MDA-MB-231 [1]) read?
The Activity was “Active”.

And the Activity (MDA-MB-231 [2])?
Its Activity is 11.4%.

And the Activity (Quadruplex DNA [3])?
The Activity was “Active”.

What about the Activity (Quadruplex DNA [4]) of the same compound?
Its Activity is “Active”.

And the Activity (4T1)?
Its Activity is “Active”.
